{"source": "paper PMC9072222", "about": "(RSC Advances, 2019)", "key": {"db/db mice [1]": {"tested_on": "db/db mice", "experiment": "Hypoglycemic duration test in non-fasted db/db mice", "assay_type": "in vivo, mouse", "conditions": "0.1 mg kg^−1 s.c., n = 8"}, "db/db mice [2]": {"tested_on": "db/db mice", "experiment": "Chronic 8 week in vivo study in db/db mice", "parameters": "species or system mouse", "conditions": "Liraglutide 0.1 mg kg^−1 s.c., 8 week treatment, blood"}, "[3]": {"conditions": "species not given; ref not given; cited from earlier work"}, "db/db mice [4]": {"tested_on": "db/db mice", "experiment": "Modified multiple IPGTTs in fasted db/db mice", "assay_type": "in vivo, mouse", "conditions": "0.1 mg kg^−1 single dose, IPGTT at 30 hours"}}}
{"smiles": "CCCCCCCCCCCCCCCC(=O)N[C@@H](CCC(=O)NCCCC[C@H](NC(=O)[C@H](C)NC(=O)[C@H](C)NC(=O)[C@H](CCC(N)=O)NC(=O)CNC(=O)[C@H](CCC(=O)O)NC(=O)[C@H](CC(C)C)NC(=O)[C@H](Cc1ccc(O)cc1)NC(=O)[C@H](CO)NC(=O)[C@H](CO)NC(=O)[C@@H](NC(=O)[C@H](CC(=O)O)NC(=O)[C@H](CO)NC(=O)[C@@H](NC(=O)[C@H](Cc1ccccc1)NC(=O)[C@@H](NC(=O)CNC(=O)[C@H](CCC(=O)O)NC(=O)[C@H](C)NC(=O)[C@@H](N)Cc1cnc[nH]1)[C@@H](C)O)[C@@H](C)O)C(C)C)C(=O)N[C@@H](CCC(=O)O)C(=O)N[C@@H](Cc1ccccc1)C(=O)N[C@H](C(=O)N[C@@H](C)C(=O)N[C@@H](Cc1c[nH]c2ccccc12)C(=O)N[C@@H](CC(C)C)C(=O)N[C@H](C(=O)N[C@@H](CCCNC(=N)N)C(=O)NCC(=O)N[C@@H](CCCNC(=N)N)C(=O)NCC(=O)O)C(C)C)[C@@H](C)CC)C(=O)O", "note": "[Liraglutide]", "values": [{"measurement": "glucose-lowering percentage by AUC0–96 h vs saline", "setting": "db/db mice [1]", "result": 18.9, "unit": "%"}, {"measurement": "ALT", "setting": "db/db mice [2]", "result": "45.1 ± 5.1", "unit": "IU L^−1"}, {"measurement": "Cholesterol", "setting": "db/db mice [2]", "result": "4.1 ± 0.6", "unit": "mmol/L"}, {"measurement": "HDL-cholesterol", "setting": "db/db mice [2]", "result": "2.6 ± 0.1", "unit": "mmol/L"}, {"measurement": "LDL-cholesterol", "setting": "db/db mice [2]", "result": "0.8 ± 0.1", "unit": "mmol/L"}, {"measurement": "Triglyceride", "setting": "db/db mice [2]", "result": "1.1 ± 0.2", "unit": "mmol/L"}, {"measurement": "in vivo half-life", "setting": "[3]", "result": "~8", "unit": "h"}, {"measurement": "glucose-lowering effect at 30 hours", "setting": "db/db mice [4]", "result": "almost ineffective"}]}
